Assay results published in patent US9492450B2, “Inhibition of dynamin related protein 1 to promote cell death” (University of Pittsburgh—of the Commonwealth System of …, priority 2011, dated 2016).

How the values were obtained:
[1] = test system: Bax/Bak WT and double knockout (DKO) SV40-transformed MEF cells; experiment: Apoptosis, ROS and mitochondrial morphology in Bax/Bak MEF cells; assay type: cell-based, mouse; conditions: cisplatin alone 20 h in DKO cells; combination within 8 h
Experimental: FIG. 24A-E. The combination of cisplatin and mdivi-1 enhances MOMP bypassing Bax/Bak-dependent mechanism. (A) Bax/Bak wild-type (Bax/Bak+/+) and double knockout (Bax/Bak−/−) SV40-transformed MEF cells were treated with cisplatin at indicated concentrations for 20 h. The cleavage of caspase-9 and -3 were detected by western blot. (B, C) Cleavage of caspase-9 and -3 in Bax/Bak wild-type and double knockout MEF cells after combination treatment. (D) Quantification of apoptotic cells by Annexin V and PI after 8 h treatment of combination at 50 μM. (E) Release of cytochrome c from Bax/Bak wild-type and double knockout MEF cells after combination treatment.
FIG. 25A-I. Mdivi-1 causes mitochondrial dysfunction and its combination with cisplatin induces mitochondrial swelling that triggers Bax/Bak-independent MOMP. (A) MDA-MB-231 cells and H1299 cells were treated as indicated for 4 h and subjected to ATP determination. […] (B, C) OCR and ECAR were measured after 4 h treatment of H1299 cells with agents alone or the combination (C/M). […] Mitochondrial membrane potential was determined with TMRM. […] Mitochondrial membrane potential was measured as in D. (F) Bax/Bak double knockout MEF cells were treated as indicated for 2 h, ROS generation was determined with DCF-DA. […] Mitochondrial morphology was analyzed by confocal microscopy. […] Mitochondrial ultrastructure was analyzed by electron microscopy. […]

[2] = test system: primary epithelial ovarian cancer (EOC) cells; experiment: Ex vivo drug sensitivity assay on primary cells from ovarian cancer patient ascites; assay type: cell-based, human; conditions: MTS 72 h
Experimental: FIG. 20A-C. The combination of cisplatin and mdivi-1 efficiently overcomes acquired cisplatin resistance in human ovarian cancer cells, including those from endstage cisplatin- and treatment-refractory patient. (A) The comparison of cisplatin sensitivity in ovarian cancer cells A2780 and their derivative cisplatin-resistant A2780cis cells (left panel). A2780cis cells were treated with cisplatin alone or in combination with mdivi-1 for 72 h (right panel). The survival was determined by MTS assay. (B and C) Ex vivo drug sensitivity assay using primary EOC cells isolated from ascites fluid of ovarian cancer patients (B, treatment-naïve; C, cisplatin-resistant). Apoptosis was measured by caspase-3/7 activity assay after 20 h exposure and the survival was measured by MTS assay after 72 h exposure. […]
Cell proliferation was determined using a CyQUANT Direct Cell Proliferation Assay kit (Invitrogen), the activity of caspase-3/7 was measured using a Caspase-Glo 3/7 Assay Systems (Promega, Madison, Wis.), and the MTS colorimetric survival assay was performed using the CellTiter 96 AQueous One Solution Cell Proliferation Assay kit (Promega, Madison, Wis.), according to the manufacturer's instructions. The survival fractions were calculated after setting untreated control cells at 100%. […] The cytotoxic interactions between the two drugs was determined using the method of Chou and Talalay. […]

In the case of `N.N.[Cl][Pt][Cl]` [cisplatin], the “cleavage of caspase-9 and -3” value [1] is reported as “absence of cleavage of caspase-9 and -3”, the IC50 ([2]; EOC cells of a patient not treated with cisplatin (treatment-naïve)) is reported as about 7.97 µM and the IC50 ([2]; EOC cells of a patient with clinically-defined cisplatin resistance) is reported as about 11.6 µM.
